pIC50: −log10 of the molar value.
Columns and labels:
Assay in all cases: cells
ML-2 = assay type: functional, cell-based, Homo sapiens; details: Homo sapiens, ML-2;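 also: growth inhibition of ML-2 cells, measured with a cell viability readout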
Description: SANGER: Inhibition of human ML-2 cell growth in a cell viability assay.

KE-37 = assay type: functional, cell-based, Homo sapiens; details: Homo sapiens, KE-37;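 also: growth inhibition of KE-37 cells, read out with a cell viability assay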
Description: SANGER: Inhibition of human KE-37 cell growth in a cell viability assay.

SK-NEP-1 = assay type: functional, cell-based, Homo sapiens; details: Homo sapiens, SK-NEP-1;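 also: growth inhibition of human SK-NEP-1 cells, read out by a cell viability assay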
Description: SANGER: Inhibition of human SK-NEP-1 cell growth in a cell viability assay.

SHP77 = assay type: functional, cell-based, Homo sapiens, SHP-77; details: Homo sapiens, SHP77;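 also: growth inhibition of human SHP-77 cells measured by a cell viability assay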
GCIY = assay type: functional, cell-based, Homo sapiens; details: Homo sapiens, GCIY;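 also: growth inhibition of the human GCIY cell line, read out by a cell viability assay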
Description: SANGER: Inhibition of human GCIY cell growth in a cell viability assay.

BE-13 = assay type: functional, cell-based, Homo sapiens; details: Homo sapiens, BE-13;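 also: growth inhibition of human BE-13 cells, measured with a cell viability assay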
Description: SANGER: Inhibition of human BE-13 cell growth in a cell viability assay.

SNU1 = assay type: functional, cell-based, Homo sapiens; details: Homo sapiens, SNU1;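 also: growth inhibition of human NCI-SNU-1 cells, measured with a cell viability assay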
Description: SANGER: Inhibition of human NCI-SNU-1 cell growth in a cell viability assay.

DSH1 = assay type: functional, cell-based; details: Homo sapiens;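 also: growth inhibition of human DSH1 cells, measured with a cell viability readout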
Description: SANGER: Inhibition of human DSH1 cell growth in a cell viability assay.

JVM-2 = assay type: functional, cell-based, Homo sapiens; details: Homo sapiens, JVM-2;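 also: growth inhibition of JVM-2 cells determined by a cell viability assay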
Description: SANGER: Inhibition of human JVM-2 cell growth in a cell viability assay.

RXF 393 = assay type: functional, cell-based, Homo sapiens; details: Homo sapiens, RXF 393;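 also: growth inhibition of human RXF 393 cells, read out with a cell viability assay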
Description: SANGER: Inhibition of human RXF393 cell growth in a cell viability assay.

COLO-684 = assay type: functional, cell-based, Homo sapiens; details: Homo sapiens, COLO-684
LB1047-RCC = assay type: functional, cell-based, Homo sapiens; details: Homo sapiens, LB1047-RCC;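 also: inhibition of cell growth, determined with a cell viability assay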
Description: SANGER: Inhibition of human LB1047-RCC cell growth in a cell viability assay.

EW-13 = assay type: functional, cell-based, Homo sapiens; details: Homo sapiens, EW-13; read-out: IC50;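 also: growth inhibition of EW-13 cells, read out with a cell viability assay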
Description: SANGER: Inhibition of human EW-13 cell growth in a cell viability assay.

DJM-1 = assay type: functional, cell-based, Homo sapiens; details: Homo sapiens, DJM-1;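 also: growth inhibition of human DJM-1 cells, read out by a cell viability assay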
697 = assay type: functional, cell-based, Homo sapiens; details: Homo sapiens
MC116 = assay type: functional, cell-based, Homo sapiens; details: Homo sapiens, MC116;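 also: growth inhibition of MC116 cells, read out with a cell viability assay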
Description: SANGER: Inhibition of human MC116 cell growth in a cell viability assay.

NMC-G1 = assay type: functional, cell-based, Homo sapiens; details: Homo sapiens, NMC-G1;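 also: growth inhibition of the NMC-G1 cell line, measured with a cell viability read-out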
Description: SANGER: Inhibition of human NMC-G1 cell growth in a cell viability assay.

LU-139 = assay type: functional, cell-based, Homo sapiens; details: Homo sapiens, LU-139
Description: SANGER: Inhibition of human LU-139 cell growth in a cell viability assay.

EW-3 = assay type: functional, cell-based, Homo sapiens; details: Homo sapiens, EW-3;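 also: cell viability assay read-out, IC50 reflects inhibition of growth of the EW-3 cells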
Description: SANGER: Inhibition of human EW-3 cell growth in a cell viability assay.

OS-RC-2 = assay type: functional, cell-based, Homo sapiens; details: Homo sapiens, OS-RC-2;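 also: growth inhibition of human OS-RC-2 cells, measured by a cell viability assay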
Description: SANGER: Inhibition of human OS-RC-2 cell growth in a cell viability assay.

EW-1 = assay type: functional, cell-based, Homo sapiens; details: Homo sapiens, EW-1
Description: SANGER: Inhibition of human EW-1 cell growth in a cell viability assay.

CAS-1 = assay type: functional, cell-based, Homo sapiens; details: Homo sapiens, CAS-1;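 also: growth inhibition of CAS-1 cells, measured with a cell viability assay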
Description: SANGER: Inhibition of human CAS-1 cell growth in a cell viability assay.

NCI-H82 = assay type: functional, cell-based, Homo sapiens; details: Homo sapiens, NCI-H82;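 also: growth inhibition of NCI-H82 cells, measured with a cell viability readout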
Description: SANGER: Inhibition of human NCI-H82 cell growth in a cell viability assay.

NB10 = assay type: functional, cell-based, Homo sapiens; details: Homo sapiens, NB10;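 also: growth inhibition of NB10 cells, read out by a cell viability assay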
Description: SANGER: Inhibition of human NB10 cell growth in a cell viability assay.

NCI-H446 = assay type: functional, cell-based, Homo sapiens; details: Homo sapiens, NCI-H446;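 also: growth inhibition of NCI-H446 cells determined by a cell viability assay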
Description: SANGER: Inhibition of human NCI-H446 cell growth in a cell viability assay.

TK-10 = assay type: functional, cell-based, Homo sapiens; details: Homo sapiens, TK-10;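 also: growth inhibition of TK-10 cells, read out in a cell viability assay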
Description: SANGER: Inhibition of human TK10 cell growth in a cell viability assay.

RKO = assay type: functional, cell-based, Homo sapiens; details: Homo sapiens, RKO;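 also: growth inhibition of human RKO cells, read out with a cell viability assay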
U-266 = assay type: functional, cell-based, Homo sapiens; details: Homo sapiens, U-266
SK-N-FI = assay type: functional, cell-based, Homo sapiens; details: Homo sapiens, SK-N-FI;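 also: cell viability assay measuring growth inhibition of human SK-N-FI cells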
Description: SANGER: Inhibition of human SK-N-FI cell growth in a cell viability assay.

HCE-T = assay type: functional, cell-based, Homo sapiens; details: Homo sapiens, HCE-T;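 also: cell viability assay read-out, reporting inhibition of HCE-T cell growth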
Description: SANGER: Inhibition of human HCE-T cell growth in a cell viability assay.

L-363 = assay type: functional, cell-based, Homo sapiens; details: Homo sapiens, L-363
ATN-1 = assay type: functional, cell-based, Homo sapiens; details: Homo sapiens, ATN-1;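 also: growth inhibition of human ATN-1 cells, read out with a cell viability assay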
Description: SANGER: Inhibition of human ATN-1 cell growth in a cell viability assay.

LAMA-84 = assay type: functional, cell-based, Homo sapiens; details: Homo sapiens, LAMA-84;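 also: growth inhibition of LAMA-84 cells, read out with a cell viability assay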
A4-Fuk = assay type: functional, cell-based, Homo sapiens; details: Homo sapiens, A4-Fuk;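 also: growth inhibition of A4-Fuk cells, read out by a cell viability assay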
Description: SANGER: Inhibition of human A4-Fuk cell growth in a cell viability assay.

SBC-1 = assay type: functional, cell-based, Homo sapiens; details: Homo sapiens, SBC-1;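 also: cell viability assay measuring growth inhibition of the SBC-1 cell line, IC50 being the concentration that halves growth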
Description: SANGER: Inhibition of human SBC-1 cell growth in a cell viability assay.

P30-OHK = assay type: functional, cell-based, Homo sapiens; details: Homo sapiens, P30-OHK;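 also: growth inhibition of the P30-OHK cell line, read out with a cell viability assay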
Description: SANGER: Inhibition of human P30-OHK cell growth in a cell viability assay.

KURAMOCHI = assay type: functional, cell-based, Homo sapiens; details: Homo sapiens, KURAMOCHI;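 also: growth inhibition of KURAMOCHI cells, read out with a cell viability assay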
Description: SANGER: Inhibition of human KURAMOCHI cell growth in a cell viability assay.

SW 962 = assay type: functional, cell-based, Homo sapiens; details: Homo sapiens, SW 962;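 also: growth inhibition of human SW962 cells, read out by a cell viability assay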
Description: SANGER: Inhibition of human SW962 cell growth in a cell viability assay.

GT3TKB = assay type: functional, cell-based, Homo sapiens; details: Homo sapiens, GT3TKB;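 also: growth inhibition of the cell line, read out with a cell viability assay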
Description: SANGER: Inhibition of human GT3TKB cell growth in a cell viability assay.

NCI-H747 = assay type: functional, cell-based, Homo sapiens; details: Homo sapiens, NCI-H747;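 also: growth inhibition of human NCI-H747 cells, read out by a cell viability assay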
Description: SANGER: Inhibition of human NCI-H747 cell growth in a cell viability assay.

JAR = assay type: functional, cell-based, Homo sapiens; details: Homo sapiens, JAR;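 also: growth inhibition of human JAR cells determined with a cell viability assay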
Description: SANGER: Inhibition of human JAR cell growth in a cell viability assay.

HAL-01 = assay type: functional, cell-based, Homo sapiens; details: Homo sapiens, HAL-01;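 also: growth inhibition of human HAL-01 cells, read out with a cell viability assay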
Description: SANGER: Inhibition of human HAL-01 cell growth in a cell viability assay.

NOS-1 = assay type: functional, cell-based, Homo sapiens; details: Homo sapiens, NOS-1;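 also: growth inhibition of the human NOS-1 cell line, read out with a cell viability assay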
Description: SANGER: Inhibition of human NOS-1 cell growth in a cell viability assay.

IST-MES1 = assay type: functional, cell-based, Homo sapiens; details: Homo sapiens, IST-MES1;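 also: growth inhibition of IST-MES1 cells, measured with a cell viability assay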
Description: SANGER: Inhibition of human IST-MES1 cell growth in a cell viability assay.

NCI-H526 = assay type: functional, cell-based, Homo sapiens; details: Homo sapiens, NCI-H526;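 also: growth inhibition of the human NCI-H526 cell line, measured by a cell viability assay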
Description: SANGER: Inhibition of human NCI-H526 cell growth in a cell viability assay.

OVCAR-4 = assay type: functional, cell-based, Homo sapiens; details: Homo sapiens, OVCAR-4;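 also: growth inhibition of human OVCAR-4 cells, measured with a cell viability assay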
Description: SANGER: Inhibition of human OVCAR-4 cell growth in a cell viability assay.

CTB-1 = assay type: functional, cell-based, Homo sapiens; details: Homo sapiens, CTB-1
Description: SANGER: Inhibition of human CTB-1 cell growth in a cell viability assay.

A3-KAW = assay type: functional, cell-based, Homo sapiens; details: Homo sapiens, A3-KAW;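 also: growth inhibition of human A3-KAW cells, read out with a cell viability assay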
Description: SANGER: Inhibition of human A3-KAW cell growth in a cell viability assay.

TGBC1TKB = assay type: functional, cell-based, Homo sapiens; details: Homo sapiens, TGBC1TKB;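 also: growth inhibition of TGBC1TKB cells, read out by a cell viability assay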
Description: SANGER: Inhibition of human TGBC1TKB cell growth in a cell viability assay.

ES4 = assay type: functional, cell-based, Homo sapiens; details: Homo sapiens, ES4;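 also: growth inhibition of human ES4 cells, read out by a cell viability assay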

C[C@@H](Oc1cc(-c2cnn(C3CCNCC3)c2)cnc1N)c1c(Cl)ccc(F)c1Cl [CRIZOTINIB]
pIC50 (ML-2): < 5.70
pIC50 (KE-37): < 5.70
pIC50 (SK-NEP-1): < 5.70
pIC50 (SHP77): < 5.70
pIC50 (GCIY): < 5.70
pIC50 (BE-13): < 5.70
pIC50 (SNU1): < 5.70
pIC50 (DSH1): < 5.70
pIC50 (JVM-2): < 5.70
pIC50 (RXF 393): < 5.70
pIC50 (COLO-684): < 5.70
pIC50 (LB1047-RCC): < 5.70
pIC50 (EW-13): < 5.70
pIC50 (DJM-1): < 5.70
pIC50 697: < 5.70
pIC50 (MC116): < 5.70
pIC50 (NMC-G1): < 5.70
pIC50 (LU-139): < 5.70
pIC50 (EW-3): < 5.70
pIC50 (OS-RC-2): < 5.70
pIC50 (EW-1): < 5.70
pIC50 (CAS-1): < 5.70
pIC50 (NCI-H82): < 5.70
pIC50 (NB10): < 5.70
pIC50 (NCI-H446): < 5.70
pIC50 (TK-10): < 5.70
pIC50 (RKO): < 5.70
pIC50 (U-266): < 5.70
pIC50 (SK-N-FI): < 5.70
pIC50 (HCE-T): < 5.70
pIC50 (L-363): < 5.70
pIC50 (ATN-1): < 5.70
pIC50 (LAMA-84): 5.86
pIC50 (A4-Fuk): < 5.70
pIC50 (SBC-1): < 5.70
pIC50 (P30-OHK): < 5.70
pIC50 (KURAMOCHI): < 5.70
pIC50 (SW 962): < 5.70
pIC50 (GT3TKB): < 5.70
pIC50 (NCI-H747): < 5.70
pIC50 (JAR): < 5.70
pIC50 (HAL-01): < 5.70
pIC50 (NOS-1): < 5.70
pIC50 (IST-MES1): < 5.70
pIC50 (NCI-H526): < 5.70
pIC50 (OVCAR-4): < 5.70
pIC50 (CTB-1): < 5.70
pIC50 (A3-KAW): < 5.70
pIC50 (TGBC1TKB): < 5.70
pIC50 (ES4): < 5.70

Cc1cc(N2CCOCC2)cc2[nH]c(-c3c(NC[C@@H](O)c4cccc(Cl)c4)cc[nH]c3=O)nc12
pIC50 (ML-2): 6.72
pIC50 (KE-37): < 5.29
pIC50 (SK-NEP-1): < 5.29
pIC50 (SHP77): < 5.29
pIC50 (GCIY): 6.39
pIC50 (BE-13): < 5.29
pIC50 (SNU1): < 5.29
pIC50 (DSH1): < 5.29
pIC50 (JVM-2): < 5.29
pIC50 (RXF 393): 5.89
pIC50 (COLO-684): < 5.29
pIC50 (LB1047-RCC): 6.19
pIC50 (EW-13): < 5.29
pIC50 (DJM-1): < 5.29
pIC50 697: 5.95
pIC50 (MC116): < 5.29
pIC50 (NMC-G1): 5.34
pIC50 (LU-139): < 5.29
pIC50 (EW-3): 5.32
pIC50 (OS-RC-2): 5.84
pIC50 (EW-1): 6.76
pIC50 (CAS-1): < 5.29
pIC50 (NCI-H82): < 5.29
pIC50 (NB10): < 5.29
pIC50 (NCI-H446): < 5.29
pIC50 (TK-10): 5.65
pIC50 (RKO): 6.00
pIC50 (U-266): < 5.29
pIC50 (SK-N-FI): < 5.29
pIC50 (HCE-T): < 5.29
pIC50 (L-363): 6.48
pIC50 (ATN-1): 6.60
pIC50 (LAMA-84): < 5.29
pIC50 (A4-Fuk): 7.24
pIC50 (SBC-1): < 5.29
pIC50 (P30-OHK): < 5.29
pIC50 (KURAMOCHI): 5.40
pIC50 (SW 962): 5.92
pIC50 (GT3TKB): < 5.29
pIC50 (NCI-H747): 6.17
pIC50 (JAR): < 5.29
pIC50 (HAL-01): 5.95
pIC50 (NOS-1): 7.13
pIC50 (IST-MES1): 5.95
pIC50 (NCI-H526): < 5.29
pIC50 (OVCAR-4): 5.31
pIC50 (CTB-1): < 5.29
pIC50 (A3-KAW): 5.71
pIC50 (TGBC1TKB): 5.64
pIC50 (ES4): 6.21

C=CC(=O)N1CCCC(Nc2nc(Nc3ccc(N(C)C(=O)CC)cc3)nc3[nH]cnc23)C1 (stereo not given)
pIC50 (ML-2): < 4.99
pIC50 (KE-37): < 4.99
pIC50 (SK-NEP-1): < 4.99
pIC50 (SHP77): < 4.99
pIC50 (GCIY): < 4.99
pIC50 (BE-13): < 4.99
pIC50 (SNU1): < 4.99
pIC50 (DSH1): < 4.99
pIC50 (JVM-2): < 4.99
pIC50 (RXF 393): < 4.99
pIC50 (COLO-684): < 4.99
pIC50 (LB1047-RCC): < 4.99
pIC50 (EW-13): < 4.99
pIC50 (DJM-1): < 4.99
pIC50 697: < 4.99
pIC50 (MC116): < 4.99
pIC50 (NMC-G1): < 4.99
pIC50 (LU-139): < 4.99
pIC50 (EW-3): < 4.99
pIC50 (OS-RC-2): < 4.99
pIC50 (EW-1): < 4.99
pIC50 (CAS-1): < 4.99
pIC50 (NCI-H82): < 4.99
pIC50 (NB10): < 4.99
pIC50 (NCI-H446): < 4.99
pIC50 (TK-10): < 4.99
pIC50 (RKO): < 4.99
pIC50 (U-266): < 4.99
pIC50 (SK-N-FI): < 4.99
pIC50 (HCE-T): < 4.99
pIC50 (L-363): < 4.99
pIC50 (ATN-1): < 4.99
pIC50 (LAMA-84): < 4.99
pIC50 (A4-Fuk): < 4.99
pIC50 (SBC-1): 5.10
pIC50 (P30-OHK): < 4.99
pIC50 (KURAMOCHI): < 4.99
pIC50 (SW 962): 5.29
pIC50 (GT3TKB): < 4.99
pIC50 (NCI-H747): < 4.99
pIC50 (JAR): < 4.99
pIC50 (HAL-01): < 4.99
pIC50 (NOS-1): < 4.99
pIC50 (IST-MES1): < 4.99
pIC50 (NCI-H526): < 4.99
pIC50 (OVCAR-4): < 4.99
pIC50 (CTB-1): < 4.99
pIC50 (A3-KAW): < 4.99
pIC50 (TGBC1TKB): < 4.99
pIC50 (ES4): < 4.99

COC(=O)[C@H](CCSC)NC(=O)c1ccc(NC[C@@H](N)CS)cc1-c1ccccc1
pIC50 (ML-2): < 5.99
pIC50 (KE-37): < 5.99
pIC50 (SK-NEP-1): < 5.99
pIC50 (SHP77): < 5.99
pIC50 (GCIY): < 5.99
pIC50 (BE-13): < 5.99
pIC50 (SNU1): < 5.99
pIC50 (DSH1): < 5.99
pIC50 (JVM-2): < 5.99
pIC50 (RXF 393): < 5.99
pIC50 (COLO-684): < 5.99
pIC50 (LB1047-RCC): < 5.99
pIC50 (EW-13): < 5.99
pIC50 (DJM-1): < 5.99
pIC50 697: < 5.99
pIC50 (MC116): < 5.99
pIC50 (NMC-G1): < 5.99
pIC50 (LU-139): < 5.99
pIC50 (EW-3): < 5.99
pIC50 (OS-RC-2): < 5.99
pIC50 (EW-1): < 5.99
pIC50 (CAS-1): < 5.99
pIC50 (NCI-H82): < 5.99
pIC50 (NB10): < 5.99
pIC50 (NCI-H446): < 5.99
pIC50 (TK-10): < 5.99
pIC50 (RKO): < 5.99
pIC50 (U-266): < 5.99
pIC50 (SK-N-FI): < 5.99
pIC50 (HCE-T): < 5.99
pIC50 (L-363): < 5.99
pIC50 (ATN-1): < 5.99
pIC50 (LAMA-84): < 5.99
pIC50 (A4-Fuk): < 5.99
pIC50 (SBC-1): < 5.99
pIC50 (P30-OHK): < 5.99
pIC50 (KURAMOCHI): < 5.99
pIC50 (SW 962): < 5.99
pIC50 (GT3TKB): < 5.99
pIC50 (NCI-H747): < 5.99
pIC50 (JAR): < 5.99
pIC50 (HAL-01): < 5.99
pIC50 (NOS-1): < 5.99
pIC50 (IST-MES1): < 5.99
pIC50 (NCI-H526): < 5.99
pIC50 (OVCAR-4): < 5.99
pIC50 (CTB-1): < 5.99
pIC50 (A3-KAW): < 5.99
pIC50 (TGBC1TKB): < 5.99
pIC50 (ES4): < 5.99

Source: ChEMBL document CHEMBL1201861, “Genomics of Drug Sensitity in Cancer screening data, Wellcome Trust Sanger Institute”
